Experimental data: ChEMBL document CHEMBL1138427, “Intestinal permeability of antivirus constituents from the fruits of Eucalyptus globulus Labill. in Caco-2 Cell Model” (Bioorg Med Chem Lett, 2007)

Legend:
Type in all cases: ADME, cell-based
[1] = Apparent permeability from apical to basolateral side of human Caco-2 cells at 30 uM after 90 mins
[2] = Apparent permeability from apical to basolateral side of human Caco-2 cells at 50 uM after 90 mins
[3] = Apparent permeability from apical to basolateral side of human Caco-2 cells at 100 uM after 90 mins
[4] = Apparent permeability from basolateral to apical side of human Caco-2 cells at 30 uM after 90 mins
[5] = Apparent permeability from basolateral to apical side of human Caco-2 cells at 50 uM after 90 mins
[6] = Apparent permeability from basolateral to apical side of human Caco-2 cells at 100 uM after 90 mins
Caco-2 [7] = assay: Ratio of permeability from basolateral to apical side over apical to basolateral side of human Caco-2 cells at 30 uM; details: caco-2, 30 µM
Caco-2 [8] = assay: Ratio of permeability from basolateral to apical side over apical to basolateral side of human Caco-2 cells at 50 uM; details: caco-2, 50 µM
Caco-2 [9] = assay: Ratio of permeability from basolateral to apical side over apical to basolateral side of human Caco-2 cells at 100 uM; details: caco-2, 100 µM
[10] = Apparent permeability from apical to basolateral side of human Caco-2 cells at 50 uM in presence of iodoacetamide; details: Caco-2, with iodoacetamide (concentration not stated)
[11] = Apparent permeability from basolateral to apical side of human Caco-2 cells at 50 uM in presence of iodoacetamide; details: Caco-2, with iodoacetamide (concentration not stated)
Caco-2 [12] = assay: Drug level in Caco-2 cells assessed as intracellular accumulation at 50 uM after 180 mins; details: human, caco-2, 3 h
Caco-2 [13] = assay: Drug level in Caco-2 cells assessed as intracellular accumulation at 50 uM after 60 mins; details: human, caco-2, 1 h
Caco-2 [14] = assay: Drug level in Caco-2 cells assessed as intracellular accumulation at 50 uM after 90 mins; details: human, caco-2, 1.5 h
Caco-2 [15] = assay: Drug level in Caco-2 cells assessed as intracellular accumulation at 50 uM after 120 mins; details: human, caco-2, 2 h
Caco-2 [16] = assay: Drug level in Caco-2 cells assessed as intracellular accumulation at 50 uM after 150 mins; details: human, caco-2, 2.5 h
[17] = Drug level in Caco-2 cells assessed as total recovery rate at 50 uM after 30 mins; details: human, read-out: Drug uptake
[18] = Drug level in Caco-2 cells assessed as total recovery rate at 50 uM after 60 mins; details: human, read-out: Drug uptake
[19] = Drug level in Caco-2 cells assessed as total recovery rate at 50 uM after 90 mins; details: human, read-out: Drug uptake
[20] = Drug level in Caco-2 cells assessed as total recovery rate at 50 uM after 120 mins; details: human, read-out: Drug uptake
[21] = Drug level in Caco-2 cells assessed as total recovery rate at 50 uM after 150 mins; details: human, read-out: Drug uptake
[22] = Drug level in Caco-2 cells assessed as total recovery rate at 50 uM after 180 mins; details: human, read-out: Drug uptake
Caco-2 [23] = assay: Drug level in Caco-2 cells assessed as intracellular accumulation at 50 uM after 30 mins; details: human, caco-2, 0.5 h

Papp A→B at 1.5 h, 30 µM [1]	Papp A→B at 1.5 h, 50 µM [2]	Papp A→B at 1.5 h, 100 µM [3]	Papp B→A at 1.5 h, 30 µM [4]	Papp B→A at 1.5 h, 50 µM [5]	Papp B→A at 1.5 h, 100 µM [6]	Ratio (Caco-2 [7])	Ratio (Caco-2 [8])	Ratio (Caco-2 [9])	Drug uptake (Caco-2 [12])	Drug uptake (Caco-2 [13])	Drug uptake (Caco-2 [14])	Drug uptake (Caco-2 [15])	Drug uptake (Caco-2 [16])	recovery at 0.5 h, 50 µM [17]	recovery at 1 h, 50 µM [18]	recovery at 1.5 h, 50 µM [19]	recovery at 2 h, 50 µM [20]	recovery at 2.5 h, 50 µM [21]	recovery at 3 h, 50 µM [22]	SMILES	also measured
7.4 ×10⁻⁶ cm/s	5.99 ×10⁻⁶ cm/s	4.82 ×10⁻⁶ cm/s	2.66 ×10⁻⁶ cm/s	3.32 ×10⁻⁶ cm/s	2.71 ×10⁻⁶ cm/s	2.74	1.8	1.81	0.89%	0.83%	0.81%	0.69%	0.81%	56.8%	53.1%	52.8%	52.7%	54.6%	52.5%	Cc1cc(=O)c2c(O)cc(O[C@@H]3O[C@H](COC(=O)C4=CC[C@H](C(C)(C)O)CC4)[C@@H](O)[C@H](O)[C@H]3O)cc2o1 [CYPELLOCARPA C]	Papp A→B at 50 µM [10]: 0.897 ×10⁻⁶ cm/s; Papp B→A at 50 µM [11]: 2.46 ×10⁻⁶ cm/s; Drug uptake (Caco-2 [23]): 1.42%
1.66 ×10⁻⁶ cm/s	1.64 ×10⁻⁶ cm/s	1.8 ×10⁻⁶ cm/s	1.63 ×10⁻⁶ cm/s	1.68 ×10⁻⁶ cm/s	1.42 ×10⁻⁶ cm/s	1.02	0.98	1.27	56.67%	40.79%	44.21%	50.42%	50.57%	76.4%	63.1%	60.8%	69.8%	68.5%	75.7%	CC(C)C[C@@H](c1c(O)c(C=O)c(O)c(C=O)c1O)[C@@]1(C)CC[C@@H]2[C@@H]1[C@H]1[C@@H](CC[C@@]2(C)O)C1(C)C [MACROCARPAL A]	Drug uptake (Caco-2 [23]): 36.8%
2.29 ×10⁻⁶ cm/s	1.71 ×10⁻⁶ cm/s	1.64 ×10⁻⁶ cm/s	1.84 ×10⁻⁶ cm/s	2 ×10⁻⁶ cm/s	2.14 ×10⁻⁶ cm/s	1.25	0.85	0.77	49.26%	50.56%	46.98%	63.25%	53.21%	50%	56.6%	64.7%	68.7%	59.5%	55.5%	CC(C)C[C@H](c1c(O)c(C=O)c(O)c(C=O)c1O)[C@@]1(C)CC[C@@H]2[C@@H]1[C@H]1[C@@H](CC[C@@]2(C)O)C1(C)C [MACROCARPAL B]	Drug uptake (Caco-2 [23]): 41.19%
